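Results reflect a 48-hour exposure of cells in 96-well plates to compound at five concentrations. TGI marks complete inhibition of growth.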
Legend:
Assay in all cases: inhibition of tumour cell growth, NCI panel, 48 h
SNB-19 CNS = system: SNB-19 CNS
SK-MEL-2 melanoma = system: SK-MEL-2 melanoma
HOP-62 NSCLC = system: HOP-62 NSCLC
786-0 renal = system: 786-0 renal
SF-539 CNS = system: SF-539 CNS
HOP-92 NSCLC = system: HOP-92 NSCLC
CAKI-1 renal = system: CAKI-1 renal
NCI-H460 lung = system: NCI-H460 lung
OVCAR-8 ovarian = system: OVCAR-8 ovarian
RXF 393 renal = system: RXF 393 renal
SK-OV-3 ovarian = system: SK-OV-3 ovarian
HCC-2998 colon = system: HCC-2998 colon
SK-MEL-5 melanoma = system: SK-MEL-5 melanoma
SR leukemia = system: SR leukemia
MOLT-4 leukemia = system: MOLT-4 leukemia
DU-145 prostate = system: DU-145 prostate
MDA-MB-231 breast = system: MDA-MB-231 breast
MDA-N = system: MDA-N

| Compound | TGI (SNB-19 CNS) [µM] | TGI (SK-MEL-2 melanoma) [µM] | TGI (HOP-62 NSCLC) [µM] | TGI (786-0 renal) [µM] | TGI (SF-539 CNS) [µM] | TGI (HOP-92 NSCLC) [µM] | TGI (CAKI-1 renal) [µM] | TGI (NCI-H460 lung) [µM] | TGI (OVCAR-8 ovarian) [µM] | TGI (RXF 393 renal) [µM] | TGI (SK-OV-3 ovarian) [µM] | TGI (HCC-2998 colon) [µM] | TGI (SK-MEL-5 melanoma) [µM] | TGI (SR leukemia) [µM] | TGI (MOLT-4 leukemia) [µM] | TGI (DU-145 prostate) [µM] | TGI (MDA-MB-231 breast) [µM] | TGI (MDA-N) [µM] |
| --- | --- | --- | --- | --- | --- | --- | --- | --- | --- | --- | --- | --- | --- | --- | --- | --- | --- | --- |
| COC(=O)C1CCc2c1c(=O)n1c([nH]c3ccccc31)c2C#N (stereo unspecified) | > 100 | > 100 | > 100 | > 100 | > 100 | > 100 | > 100 | > 100 | > 100 | > 100 | > 100 | > 100 | > 100 |  |  |  |  |  |
| CCOC(=O)c1c(N)n(-c2ccccc2)c(=O)n(-c2ccccc2)c1=O | > 100 | > 100 |  | > 100 |  | > 100 |  | > 100 | > 100 | > 100 |  | > 100 | > 100 | > 100 | > 100 | > 100 | > 100 |  |
| N#CC(C(=O)c1cccnc1Cl)c1nc2cc(C(F)(F)F)ccc2s1 (stereo unspecified) | > 100 |  | > 100 | > 100 | > 100 | 54.4 | > 100 | > 100 | > 100 | > 100 | > 100 |  | > 100 |  | > 100 | > 100 | > 100 |  |
| NC1=CN(CCCO)C2=N/C(=C\c3ccccc3)C(=O)N12 | > 100 | > 100 | > 100 | > 100 | > 100 | > 100 | > 100 | > 100 | > 100 | > 100 | > 100 | > 100 | > 100 |  | > 100 | > 100 | > 100 | > 100 |
| COP(=O)(OC)C(=O)N1N(c2ccc([N+](=O)[O-])cc2)C(=O)C(C)NC1(NNc1ccc([N+](=O)[O-])cc1)P(=O)(OC)OC (stereo unspecified) | > 100 | > 100 | > 100 | > 100 | > 100 | > 100 | > 100 | > 100 | > 100 |  |  | > 100 | > 100 | > 100 | > 100 |  |  |  |
| Nc1nc2c3nc(Nc4ccccc4)sc3nc(=S)n2c2sc(Nc3ccccc3)nc12 | > 100 |  | > 100 | > 100 | > 100 | 52.3 |  |  | > 100 | > 100 | > 100 | > 100 | > 100 | > 100 |  |  |  |  |
| COC(=O)C(NC(=O)C(CC(=O)OC(C)(C)C)NC(=O)OC(C)(C)C)C(O)c1ccccc1 (stereo unspecified) | > 100 | > 100 | > 100 | > 100 | > 100 |  | > 100 | > 100 | > 100 | > 100 | 61.9 |  | > 100 |  | > 100 | > 100 | > 100 | > 100 |
| S=c1[nH]nc(CNc2ccc(-c3n[nH]c(=S)n3-c3ccc(Cl)cc3)cc2)n1-c1ccc(Cl)cc1 | > 100 | 57.7 | 36.6 | 70 |  | 59.1 | 40.7 | > 100 |  | > 100 | > 100 | > 100 | 65 |  | > 100 | 71.1 | > 100 | 86.1 |
